Source: PMC9104013, “Role of Polyamine-Induced Dimerization of Antizyme in Its Cellular Functions” (International Journal of Molecular Sciences, 2022)
pKd: −log10 of the molar value. Read-outs that look alike come from different tables or passages of the source.

Experiments:
[1] = test system: transgenic rats with activated polyamine catabolism; set-up: method as in PMID 12181316, PMID 19956991, PMID 20453551; settings: cited from earlier work
hair follicle cycle = test system: hair follicle cycle; set-up: method as in PMID 19956989; settings: mice; cited from earlier work
[2] = test system: spermidine/spermine-N^1-acetyltransferase (SSAT); set-up: method as in PMID 21639123; settings: cited from earlier work
mouse OAZ1 (mOAZ1) = target: T1, mouse OAZ1 (mOAZ1) (Mus musculus, UniProt P54369); test: Isothermal titration calorimetry of polyamines binding to mOAZ1; settings: for ΔH (enthalpy variation) / Ka (affinity constant): pH 7.5; for ΔH (enthalpy variation): SD did not exceed ±20%; for Ka (affinity constant): SD did not exceed ±25%; for TΔS (entropy variation): calculated from TΔS = ΔH + RTlnKa; for Binding to mOAZ1: under the conditions used
T1 construct: Full-length mOAZ1 protein was successfully produced in E. coli; made in house; host or cells: Escherichia coli Rosetta (DE3)
T1 sequence (P54369 whole entry): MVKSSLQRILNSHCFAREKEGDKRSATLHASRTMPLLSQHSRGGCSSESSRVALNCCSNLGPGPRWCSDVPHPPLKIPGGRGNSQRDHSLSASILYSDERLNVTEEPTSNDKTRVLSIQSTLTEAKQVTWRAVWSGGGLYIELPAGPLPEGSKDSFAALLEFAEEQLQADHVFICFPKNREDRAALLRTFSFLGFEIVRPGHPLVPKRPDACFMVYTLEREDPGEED
Experimental: For the precise isothermal titration calorimetry (ITC) experiments only freshly purified samples turned out to be suitable. The thermodynamic parameters of polyamines binding to OAZ1 were measured using a MicroCal iTC200 instrument (GE Healthcare, Chicago, IL, USA) as described elsewhere. Experiments were carried out at 31 °C in buffer containing 25 mM potassium phosphate, pH 7.5; 150 mM KCl; 25% (v/v) glycerol; 1 mM 2-mercaptoethanol; and 1 mM PMSF. Aliquots (2.5 μL) of ligands were injected into a 0.2 mL cell containing the protein solution to achieve a complete binding isotherm. Protein and ligand concentrations were 20 μM and 200 μM, respectively. The heat of dilution was measured by injection of the ligand into the buffer solution or by additional injections of ligand after saturation; the values obtained were subtracted from the heat of reaction to obtain the effective heat of binding. The resulting titration curves were fitted using the MicroCal Origin software, assuming one set of binding sites. Affinity constants (Ka) and enthalpy variations (ΔH) were determined, and the entropy variations (ΔS) were calculated from the equation: TΔS = ΔH + RTlnKa.

OAZ1 protein = OAZ1 protein levels in DU145 cells (Western blotting); type: cell-based; settings: 4 h, 100 μM, MG132 25 μM
Experimental: Figure 3 2-MeSpd is the weakest inducer of OAZ1 synthesis and the weakest downregulator of ODC in DU145 cells. (A) Uptake of Spd and its analogues in CHX-treated DU145 cells. After 2 h preincubation with CHX (100 µg/mL), the compounds (100 µM) were added, and incubation continued for 4 h before the analysis of the intracellular analogue concentration. (B) Uptake of Spd and its analogues in OAZ1-overexpressing DU145 cells. OAZ1 was induced by 24 h preincubation with DOX (250 ng/mL). The compounds (100 µM) were added for further 6 h before the analysis of intracellular analogue concentration. (C) Effect of Spd and the analogues on OAZ1 protein levels in DU145 cells. The cells were incubated for 4 h with 100 μM analogues in the presence of the proteasomal inhibitor, MG132 (25 μM). (D) Effect of Spd and the analogues on ODC activity in DU145 cells. […]
Polyamines were measured with HPLC according to the published method. Acid-precipitated pellets were dissolved to 0.1 M NaOH, and the amount of DNA was measured using the PicoGreen reagent (Invitrogen) according to manufacturer’s instructions using dilutions of calf thymus DNA (Sigma-Aldrich) as standard curve. Protein concentrations were measured using Bio-Rad protein kit with dilutions of bovine serum albumin (Bio-Rad, Hercules, CA, USA) as standards. ODC activities were measured from the cytosolic fractions as described earlier. […]

ODC [3] = test: In vitro effect of Spd and its analogues on ODC activity in cytosolic extract; type: biochemical; settings: 1 mM, ODC-enriched extract plus extract from OAZ1-overexpressing cells
Experimental: (§1) ODC-enriched lysate was prepared from subconfluent DU145 cells 6 h after medium change by lysing the cells in buffer containing 25 mM Tris-HCl, pH 7.4, 1 mM DTT, and 0.01% Tween-80. OAZ1-enriched lysate was prepared from OAZ1-overexpressing DU145 cells in the same buffer. The lysate was cleared by centrifugation, and the endogenous polyamines were removed by ultrafiltration through 3K-cutoff filter and washing twice with lysis buffer. In experiment 1, ODC-enriched cytoplasmic extract (~100 μg of total protein) was incubated for 30 min at +37 °C in the presence of 1 mM Spd or analogues before ODC activity assay. In experiment 2, ODC-enriched cytoplasmic extract (~100 μg of total protein) was incubated for 30 min at +37 °C with OAZ1-enriched cytoplasmic extract (~100 μg of total protein) in the presence of 1 mM Spd or analogues before ODC activity assay.

ODC [4] = target: T2, ODC (Homo sapiens, UniProt P11926); test: as above; type: biochemical; settings: 1 mM, ODC-enriched DU145 cell sample, 30 min, +37 °C
T2 construct: ODC-enriched lysate was prepared from subconfluent DU145 cells 6 h after medium change; endogenous in cells; host or cells: DU145 cells (cytosolic extract)
T2 sequence (P11926 1-461): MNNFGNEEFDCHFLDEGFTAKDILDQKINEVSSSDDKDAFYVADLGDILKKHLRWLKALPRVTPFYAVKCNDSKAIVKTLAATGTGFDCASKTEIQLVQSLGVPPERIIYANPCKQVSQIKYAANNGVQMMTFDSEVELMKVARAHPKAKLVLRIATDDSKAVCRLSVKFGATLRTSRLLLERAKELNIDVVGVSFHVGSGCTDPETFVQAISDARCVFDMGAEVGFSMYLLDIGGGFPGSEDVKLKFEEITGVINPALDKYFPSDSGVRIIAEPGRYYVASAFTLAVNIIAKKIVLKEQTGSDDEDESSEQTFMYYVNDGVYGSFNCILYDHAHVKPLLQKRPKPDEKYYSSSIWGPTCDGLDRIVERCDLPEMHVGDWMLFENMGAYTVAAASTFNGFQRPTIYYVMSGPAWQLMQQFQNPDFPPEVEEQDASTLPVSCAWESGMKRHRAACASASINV
Experimental: as §1

[5] = ITC, read-out: Kd of complex with mOAZ1
[6] = calculated as 1/Ka, no binding = not detected, Kd > 50 μM not detectable, read-out: Kd (dissociation constant)

SMILES	Acute pancreatitis [1]	Liver regeneration [1]	Hair follicle cycle (hair follicle cycle)	Substrate of SSAT [2]	ΔH (enthalpy variation) (mouse OAZ1 (mOAZ1); ITC, 31 °C)	Ka (affinity constant) (mouse OAZ1 (mOAZ1); ITC, 31 °C)	pKd (mouse OAZ1 (mOAZ1); [5])	pKd (mouse OAZ1 (mOAZ1); [6])	TΔS (entropy variation) (mouse OAZ1 (mOAZ1))	OAZ1 protein level induction (OAZ1 protein)	Stoichiometry mOAZ1/Polyamine (mouse OAZ1 (mOAZ1); ITC, 31 °C, pH 7.5, 150 mM KCl, 25% glycerol, protein 20 μM, ligand 200 μM)	Binding to mOAZ1 (mouse OAZ1 (mOAZ1); ITC)	Kd (dissociation constant) (mouse OAZ1 (mOAZ1); calculated as 1/Ka, no binding = not detected, Kd > 50 μM not detectable)	Effect on the ability of OAZ1 to inhibit ODC activity in vitro (ODC [3])	Effect of direct addition on ODC activity in vitro (ODC [4])
CC(N)CCNCCCCN (centres unmarked) [1-MeSpd]	prevented acute pancreatitis	restored liver regeneration	activate the hair follicle cycle	not a substrate of SSAT	-2.2 kcal/mol	540000 M⁻¹	~6.00	5.72	5.8 kcal/mol	–	–	–	–	–	–
CC(CN)CNCCCCN (centres unmarked) [2-MeSpd]	–	–	–	substrate of both SSAT and SpmSy	No binding ^f	No binding ^f	–	–	No binding ^f	only marginally induced	No binding ^f	not detected	No binding ^f	–	–
CC(CCN)NCCCCN (centres unmarked) [3-MeSpd]	–	–	–	not a substrate of either SSAT or SpmSy	-1.2 kcal/mol	400000 M⁻¹	~6.00	5.60	6.6 kcal/mol	–	–	–	–	–	–
NCCCCNCCCN [Spd, spermidine]	–	–	–	–	-3.3 kcal/mol	280000 M⁻¹	~6.00	5.44	4.2 kcal/mol	clear induction	–	bound to mOAZ1	–	did not affect the ability of OAZ1 to inhibit ODC activity	did not affect ODC activity
